“Also recorded” adds a separate entry of the source. Non-standard residues stand in square brackets, D forms with d. Residues, ends and D or L forms follow the SMILES beside them. Nle = CCCC[C@H](N)C(=O)O
Legend:
p50/p65 complex = assay: stable HEK293T p50/p65 YFP PCA cell line, nuclear translocation (N:C ratio); format: cell-based
Experimental: Stable cell lines represent the gold standard for HTS since the assays can be reconstructed at any time from frozen stocks of cells. […] First, cells were co-transfected with YFP[2]-p65 encoding vectors, and stable cell lines were selected using 100 micrograms/ml of Hygromycin B (Invitrogen). Selected cell lines were then transfected with YFP[1]-p50. Stable cell lines expressing YFP[1]-p50/YFP[2]-p65 were isolated following double antibiotic selection with 50 μg/ml Hygromycin B and 500 μg/ml Zeocin. Cell clones stably expressing the fusion genes were identified by immunoblot analysis and fluorescence microscopy. A single cell line of each transfectant was selected for further characterization. Fluorescence of these lines is stable over at least 25 passages (data not shown). A stable, MEK/ERK cell line—constructed as described below—was used as a control for TNF effects. Fugene 6 (Roche) was used for all the transfections according to manufacturer's directions. Cells stably expressing YFP[1]-p50/YFP[2]-p65 were seeded at 20,000 cells/well in black-walled poly-lysine coated 96 well plate (Greiner). Twenty-four hours later, the cells were incubated with human TNF-alpha (Roche) for 30 min. Nuclei were stained with Hoechst 33342 (Molecular Probes) at 10 micrograms/ml for 10 min. Cells were rinsed with HBSS (Invitrogen) and kept in the same buffer. Fluorescence was visualized and images were acquired using a Discovery-1 automated fluorescence imager (Molecular Devices, Inc.) equipped with excitation and emission filters 470/35 and 535/60, respectively. […] For the high throughput screening campaign described below, cells were pretreated with compounds (10 micromolar) for 60 minutes and then stimulated with TNFalpha for 30 minutes in the presence of drugs. Cells were then fixed with 2% formaldehyde in HBSS and subsequently stained with Hoechst 33342. All liquid handling was done using a Biomek FX (Beckman) instrument and images were acquired as described above. Images were analyzed using Image J. Translocation is assessed by calculating the nuclear/cytoplasmic ratio of the mean fluorescence intensity for a population of cells (denoted as n) over several images for a given condition.
Genesis Plus is a collection of 960 diverse compounds, and includes compounds with known toxicity or fluorescent properties. Inclusion of compounds with such properties is important in HTS assay validation, as they might complicate analysis. The final concentration of compounds in wells was 10 micromolar, and all wells contained 0.5% DMSO concentration. […] Following fixation and staining of nuclei, fluorescence was analyzed on the automated fluorescent microscopy platform (Discovery 1; Universal Imaging/Molecular Devices Corp.). […]

p65/p50 complex = assay: DHFR PCA for NFkB (p65/p50) translocation in CHO DUKXB11 cells; format: cell-based, mouse and human; details: 40 micrograms/ml ALLN
Experimental: Coding regions of NFkB subunits p65 and p50 (corresponding to N-terminal 436 amino acids) were PCR amplified from mouse and human cDNAs, respectively, and ligated in-frame downstream of a 15 amino acid flexible linker (GGGGS)3 (SEQ ID No.30) followed by DHFR fragment F[1,2] or F[3] in pCDNA3.1zeo (Invitrogen). IkBa was subcloned separately into pCDNA3.1. For transient expression of these genes, 8×10e4 DHFR-deficient CHO DXB11 cells were seeded into 12 well plates and transfected 24 hours later with [F1,2]-p65, [F3]-p50, and IkBa at the molar ratio of 1:1:1 for each fusion construct using Fugene (Boehringer Mannheim) according to manufacturer's instructions. For controls, where indicated, empty pCDNA3.1 was used in place of IkBa. A total of 1 microgram of DNA was used per well.
Forty-eight hours post-transfection, complexes of F[1,2]-p65 and [F3]-p50 were detected by fluorescence microscopy. […]
To examine the effect of proteasome inhibition on NFkB nuclear translocation, the transiently transfected cells expressing the DHFR PCA were treated with 40 micrograms/ml ALLN (Calbiochem) for 1 hr prior to TxR-MTX labeling and for the subsequent duration of the experiment. The cells were rinsed with PBS and the subcellular location of NFkB complexes were visualized using a Nikon Eclipse TE2000 fluorescence microscope at excitation and emission wavelengths of 580 nm and 625 nm, respectively. […]

CCCC[C@@H](C=O)NC(=O)[C@H](CC(C)C)NC(=O)[C@H](CC(C)C)NC(C)=O [ALLN] (Ac-Leu-Leu-[Nle]-aldehyde)
block of TNF-induced increases in the N:C ratio of p50/p65 complexes (p50/p65 complex; ALLN treatment for 4 hr): 76%
effect on the TNF response in the stable p65/p50 PCA cell line (in words) (p50/p65 complex; FIG. 12(B)): inhibition of the TNF response
effect on TNF-induced cytoplasmic-to-nuclear translocation of NFkB complexes in DHFR PCA (p65/p50 complex): inhibition of the nuclear translocation; also recorded: inhibits

— patent US7062219B2, “Protein fragment complementation assays for high-throughput and high-content screening” (Odyssey Thera Inc., priority 1997, dated 2006)
